Data: patent publication US11203633B2, “Polynucleotides encoding antibodies or antigen binding fragments thereof that bind pseudomonas perv” (priority 2011, dated 2021)

Legend:
[1] = system: Psl exopolysaccharide (P. aeruginosa PAO1 and isogenic mutants); assay: Indirect ELISA / FACS binding to PAO1 and isogenic mutants; set-up: species or system Pseudomonas aeruginosa; settings: for binding (indirect ELISA): FIG. 3A; for binding (ELISA): FIG. 3E
Excerpt: In addition, duplication of VH CDR3 loop sequences in the libraries (a measure of clonal enrichment during selection), was also found to be higher in the patient library, reaching 88-92%, compared to 15-25% in the naïve library at round 3 (FIG. 1D). Individual scFv phage from affinity selections were next screened by ELISA for reactivity to P. aeruginosa heterologous serotype strains (FIG. 1E). ELISA plates (Nunc; MAXISORP™) were coated with P. aeruginosa strains from overnight cultures as described (DiGiandomenico, A., et al., Infect Immun 72, 7012-7021 (2004)). Diluted antibodies were added to blocked plates for 1 hour, washed, and treated with HRP-conjugated anti-human secondary antibodies for 1 hour followed by development and analysis as described (Ulbrandt, N. D., et al., J Virol 80, 7799-7806 (2006)). The dominant species of phage obtained from whole cell selections with both libraries yielded serotype specific reactivity (data not shown).
For IgG expression, the VH and VL chains of selected antibodies were cloned into human IgG1 expression vectors, co-expressed in HEK293 cells, and purified by protein A affinity chromatography as described (Persic, L., et al., Gene 187, 9-18 (1997)). Human IgG1 antibodies made with the variable regions from these selected serotype independent phage were confirmed for P. aeruginosa specificity and prioritized for subsequent analysis by whole cell binding to dominant clinically relevant serotypes by FACS analysis (FIG. 1F), since this method is more stringent than ELISA. For the flow cytometry based binding assays mid-log phase P. aeruginosa strains were concentrated in PBS to an OD650 of 2.0. After incubation of antibody (10 μg/mL) and bacteria (˜1×10^7 cells) for 1 hr at 4° C. with shaking, washed cells were incubated with an ALEXA FLUOR 647® goat anti-human IgG antibody (Invitrogen, Carlsbad, Calif.) for 0.5 hr at 4° C. Washed cells were stained with BACLIGHT™ green bacterial stain as recommended (Invitrogen, Carlsbad, Calif.). Samples were run on a LSR II flow cytometer (BD Biosciences) and analyzed using BD FacsDiva (v. 6.1.3) and FlowJo (v. 9.2; TreeStar).
This example describes identification of the target of anti-P. aeruginosa antibodies derived from phenotypic screening. Target analysis was performed to test whether the serotype independent antibodies targeted protein or carbohydrate antigens. […] Isogenic mutants were constructed in genes responsible for 0-antigen, alginate, and LPS core biosynthesis; wbpL (O-antigen-deficient); wbpL/algD (O-antigen and alginate deficient); rmlC (O-antigen-deficient and truncated outer core); and galU (O-antigen-deficient and truncated inner core). P. aeruginosa mutants were constructed based on the allele replacement strategy described by Schweizer (Schweizer, H. P., Mol Microbiol 6, 1195-1204 (1992); Schweizer, H. D., Biotechniques 15, 831-834 (1993)). Vectors were mobilized from E. coli strain 517.1 into P. aeruginosa strain PAO1; recombinants were isolated as described (Hoang, T. T., et al., Gene 212, 77-86 (1998)). Gene deletion was confirmed by PCR. P. aeruginosa mutants were complemented with pUCP30T-based constructs harboring wild type genes. […] The rmlC and galU genes were recently shown to be required for biosynthesis of the Psl exopolysaccharide, a repeating pentasaccharide polymer consisting of D-mannose, L-rhamnose, and D-glucose. Cam-003 binding to an isogenic pslA knockout PAO1ΔpslA, was tested, as pslA is required for Psl biosynthesis (Byrd, M. S., et al., Mol Microbiol 73, 622-638 (2009)). Binding of Cam-003 to PAO1ΔpslA was abolished when tested by ELISA (FIG. 3B) and FACS (FIG. 3C), while the LPS molecule in this mutant was unaffected (FIG. 3D). Binding of Cam-003 was restored in a PAO1ΔwbpL/algD/pslA triple mutant complemented with pslA (FIG. 3E) as was the ability of Cam-003 to mediate opsonic killing to complemented PAO1ΔpslA in contrast to the mutant (FIGS. 3F and 3G). […]

[2] = system: P. aeruginosa strain 6077 (O11-cytotoxic); assay: Corneal infection (ocular keratitis) model in mice; format: in vivo, Pseudomonas aeruginosa; settings: C3H/HeN mice; IP, 16 hours prior to infection with 6077 1×10^6 CFU; graded at 48 h; FIG. 8H
Procedure: Antibodies or PBS were administered 24 hours before infection in each model. P. aeruginosa acute pneumonia, keratitis, and thermal injury infection models were performed as described (DiGiandomenico, A., et al., Proc Natl Acad Sci USA 104, 4624-4629 (2007)), with modifications. In the acute pneumonia model, BALB/c mice (The Jackson Laboratory) were infected with P. aeruginosa strains suspended in a 0.05 ml inoculum. In the thermal injury model, CF-1 mice (Charles River) received a 10% total body surface area burn with a metal brand heated to 92° C. for 10 seconds. Animals were infected subcutaneously with P. aeruginosa strain 6077 at the indicated dose. For organ burden experiments, acute pneumonia was induced in mice followed by harvesting of lungs, spleens, and kidneys 24 hours post-infection for determination of CFU.
Cam-003 and WapR-004 efficacy was next evaluated in a P. aeruginosa corneal infection model which emphasizes the pathogens ability to attach and colonize damaged tissue. […] FIG. 8 (H): The activity of anti-Psl and anti-PcrV monoclonal antibodies V2L2 was tested in a P. aeruginosa mouse ocular keratitis model. […]

Cam-003: anti-Psl human IgG1 monoclonal antibody; VH SEQ ID NO:1, VL SEQ ID NO:2
reactivity to LPS purified from PAO1 [1]: not observed
binding (indirect ELISA) ([1]; PAO1 rmlC and galU mutants): abolished
binding (indirect ELISA) ([1]; PAO1 wbpL or wbpL/algD double mutant): unaffected
binding (ELISA and FACS) ([1]; PAO1ΔpslA, FIG. 3B-C): abolished
binding (ELISA) ([1]; PAO1ΔwbpL/algD/pslA triple mutant complemented with pslA): restored
binding (ELISA) ([1]; Pel exopolysaccharide mutant): unaffected
corneal pathology and CFU in total eye homogenates vs R347 [2]: significantly less pathology and reduced bacterial colony forming units (CFU) in total eye homogenates
